Results: patent US20230295066A1, “Process for the Efficient Preparation of (Bio)-Alkanediols” (Symrise AG, priority 2020, published 2023)
Each block holds one molecule with its values, some of them ahead of it.

Key:
Aspergillus brasiliensis = assay: Minimum Inhibitory Concentration (MIC) test, alkanediol mixtures; type: cell-based; conditions: for MICA: Comp. A alone; for MICB: Comp. B alone
Method: (§1) The Minimum Inhibitory Concentration (MIC) test is a test on growth inhibition. The estimation of MICs is executed in 96 well plates. Through the comparison of bacterial growth with positive and negative controls via optical density (OD), different concentrations of given test substances are evaluated.
(§2) Bacteria were cultivated under adjusted conditions based on information of the German Collection of Microorganisms and Cell Cultures (DSMZ) and stored in 50% glycerol prior to use. Afterwards, the following method was applied: Growth medium (according to microorganism) was added to each well of the microplate. Then, the test-substances were added in different concentrations, positive controls (water controls only with medium) and negative controls (benchmarks according to organism). Finally, the microorganisms were added in a concentration of 10^6 CFU/ml (CFU=colony forming units). The incubation of the microplates was carried out at appropriate conditions.
(§3) According to the resulting growth, substance concentrations are labelled either as inhibiting or not and MIC is defined as the lowest concentration where a complete growth inhibition is visible. Experiments at concentration limits (highest concentration labelled as growth and lowest concentration labelled as inhibiting) are performed at least twice.
(§4) Minimum Inhibitory Concentration (MIC) are given in ppm.
To verify that the tested combinations act synergistically against microorganisms of the natural microbiota of mammalian skin, a corresponding experiment was conducted with Aspergillus brasiliensis, a well-known pathogen on the skin. The synergistic activities of different alkanediol mixtures including a 1,2-alkanediol (substance A) and a 2,3-alkanediol (substance B) in ratios as specified in the following Table 5 were determined by measuring the MIC of the mixture as indicated in methods section.
In order to calculate the synergy index with MIC values, the Kull equation (I) was used as follows:
SI=(MICmix×PA)/MICA+(MICmix×PB)/MICB
wherein • SI is the Synergy Index according to Kull • MICA is the MIC value for Substance A in ppm • MICB is the MIC value for Substance B in ppm • MICmix is the MIC value for the mixture of substances A and B and C in ppm • PA is the proportion of the substance A in the mixture • PB is the proportion of the substance B in the mixture

Staphylococcus aureus = assay: Minimum Inhibitory Concentration (MIC) test, synergy with antimicrobials; type: cell-based; conditions: for MICA: MIC value for Substance A alone; for MICC: MIC value for Substance C alone; for MICB: MIC value for Substance B alone
Method: as §1, §2, §3, §4
The synergistic activity of different combinations of 1,2-nonanediol (C9 nonanediol) and 1,2-heptanediol (C7 heptanediol) as components A and C in combination with different antimicrobial compounds (component B) was determined by measuring the corresponding Minimum Inhibitory Concentrations (MIC).
To verify that the tested combinations act synergistically against microorganisms of the natural microbiota of mammalian skin, a corresponding experiment was conducted with Staphylococcus aureus, a well-known pathogen on the skin. The synergistic activities of 1,2-nonanediol (1,2-C9), 1,2-heptanediol (1,2-C7), 2,3-nonanediol (2,3-C9), 2,3-heptanediol (2,3-C7) and different antimicrobial compounds were determined by measuring the MIC of the mixture as indicated above.
In order to calculate the synergy index with MIC values, the Kull equation (equation 6) was used as follows:
SI=(MICmix×PA)/MICA+(MICmix×PB)/MICB+(MICmix×PC)/MICC Equation (6): Minimum Inhibitory Concentration
wherein • SI is the Synergy Index according to Kull • MICA is the MIC value for Substance A in ppm • MICB is the MIC value for Substance B in ppm • MICC is the MIC value for Substance C in ppm • MICmix is the MIC value for the mixture of substances A and B and C in ppm • PA is the proportion of the substance A in the mixture • PB is the proportion of the substance B in the mixture • PC is the proportion of the substance C in the mixture

[1] = Solubility in sunflower oil; type: physicochemical; conditions: result in words
[2] = tested on: reactive oxygen species (ROS) on ex vivo skin; assay: DCF assay, ROS score on ex vivo skin biopsies; type: cell-based; conditions: Cumene hydroperoxide 0.5M
Method: A dichlorofluorescein test (DCF) assay was performed in order to determine the amount of reactive oxygen species (ROS) on ex vivo skin treated with different test samples in a lipophilic or an aqueous/alcoholic system as described below.
DCF assay—assay principle: Ex vivo skin was incubated with 2′,7′-dichlorodihydrofluorescein diacetate at 37° C., 5% CO2. After PBS washing, the samples were exposed or not to cumene hydroperoxide. Immediately after exposure, ex vivo skin samples were frozen in liquid nitrogen and 5 μm cryostat sections were made and fixed with acetone to allow the visualization of fluorescence generated by ROS in cells of the reconstructed skins. The resulting fluorescence was measured at EX/EM 504/524 nm. Green fluorescence was quantified in ex vivo skin using ImageJ software. The depth of immunostaining was measured as follows: green DCFH-DE positive cells were automatically detected using Histolab software and the distance between dermal epidermal junction and the deepest positive cells were measured in each condition. Means were compared using a student's test. Two means were considered statistically different when p<0.005.
The image acquisition was performed by using Olympus BX51 microscope and Olympus DP70 camera. For each skin sample two skin sections have been taken and the related fluorescent images acquired and analysed. Thus, for each test condition, 12 images have been acquired and analysed (i.e. 12 data). The analysis of fluorescence has been performed within the dermis area. For each image the upper dermis has been analysed by evaluating the fluorescence through modified Image-J application (NIH, USA). The analysed area is selected from the upper part by following the perimeter of the basal lamina, to the deep dermis, by carefully avoiding the risk of including irregularities and agglomerates, such as blood vessels, sebaceous glands, hair follicles. The obtained value has been normalized upon the dimension of the selected area.
In addition, as positive control an AOX mix is always co-tested, i.e., as benchmark for the ROS analysis. The AOX mix is a mixture of the following antioxidants: 15% vitamin C, 1% vitamin E, 0.5% ferulic acid in a EtOH/H2O (50:50) mixture.
ROS score method description: The pigmentation score is based on the following process steps: • (1) Analysis of the image based on pixel grey intensities; • (2) Selection of an informative area excluding the pixel area not covered from tissue; • (3) Transformation of pixel grey intensities in degrees of L*; • (4) Normalization of the obtained values on the ratio between the selected area and the area of the slide.
An increased level of ROS (reactive oxygen species) led to an increased amount of fluorescence. […]

- MICA (Aspergillus brasiliensis): 7500 ppm
Molecule: CCCCC(O)CO (stereo not drawn) [1,2-C6, 1,2-hexanediol]

- MICA (Staphylococcus aureus): 7500 ppm
- MICA (Aspergillus brasiliensis): 5000 ppm
Molecule: CCCCCC(O)CO (stereo not drawn) [1,2-C7, 1,2-heptanediol]

- MICA (Aspergillus brasiliensis): 2500 ppm
- Solubility in sunflower oil / oil phase [1]: tends to precipitate or recrystallize
Molecule: CCCCCCC(O)CO (stereo not drawn) [1,2-C8, 1,2-octanediol]

- MICA (Staphylococcus aureus): 1000 ppm
- MICA (Aspergillus brasiliensis): 500 ppm
Molecule: CCCCCCCC(O)CO (stereo not drawn) [1,2-C9, 1,2-nonanediol]

- MICB (Aspergillus brasiliensis): 20000 ppm
Molecule: CCCC(O)C(C)O (stereo not drawn) [2,3-C6, 2,3-hexanediol]

- MICC (Staphylococcus aureus): 20000 ppm
- MICB (Aspergillus brasiliensis): 7500 ppm
Molecule: CCCCC(O)C(C)O (stereo not drawn) [2,3-C7, 2,3-heptanediol]

- MICB (Aspergillus brasiliensis): 2500 ppm
- Solubility in sunflower oil / oil phase [1]: good solubility
Molecule: CCCCCC(O)C(C)O (stereo not drawn) [2,3-C8, 2,3-octanediol]

- MICC (Staphylococcus aureus): 2500 ppm
- MICB (Aspergillus brasiliensis): 1000 ppm
Molecule: CCCCCCC(O)C(C)O (stereo not drawn) [2,3-C9, 2,3-nonanediol]

Molecule: O=C(CCc1ccc(O)cc1)Nc1ccccc1C(=O)O [50 ppm DHAvD, Dihydroavenanthramide D]
- ROS score, Mean Score ([2]; ex vivo skin, mean of 12 tests): 1.72
- D percent vs. - A cumene ([2]; ROS score): −14%
- D percent vs. untreated cumene ([2]; ROS score): −21%
- D percent vs. untreated/No cumene ([2]; ROS score): 1645%

- MICB (Staphylococcus aureus): 5000 ppm
Molecule: OCc1ccccc1 [Benzyl alcohol, reference compound]

- MICB (Staphylococcus aureus): 1000 ppm
Molecule: CCCCCCCC(=O)NO [Capryl hydroxamic acid, reference compound]

- MICB (Staphylococcus aureus): 250 ppm
Molecule: o-Cymen-5-ol [reference compound]
